Patent US20080206311A1, “Sucrase Activity Inhibitor, Glucoamylase Activity Inhibitor and Food and Feed Containing the Same” (MITSUI SUGAR CO., LTD., priority 2005, published 2008)

Legend:
sucrase = molecular target: T1, sucrase (Rattus norvegicus, UniProt P23739); assay: Ratio of inhibitor to the substrate sucrose (Examples 8, 9); assay type: biochemical; details: 10 min
T1 construct: This liquid contained a mixture of enzymes present in small intestine, such as sucrose, glucoamylase, maltase, and isomaltase; tissue Sigma Corporation; host or cells: rat small intestine (acetone powder), buffer extract, unpurified
T1 sequence (P23739 whole entry): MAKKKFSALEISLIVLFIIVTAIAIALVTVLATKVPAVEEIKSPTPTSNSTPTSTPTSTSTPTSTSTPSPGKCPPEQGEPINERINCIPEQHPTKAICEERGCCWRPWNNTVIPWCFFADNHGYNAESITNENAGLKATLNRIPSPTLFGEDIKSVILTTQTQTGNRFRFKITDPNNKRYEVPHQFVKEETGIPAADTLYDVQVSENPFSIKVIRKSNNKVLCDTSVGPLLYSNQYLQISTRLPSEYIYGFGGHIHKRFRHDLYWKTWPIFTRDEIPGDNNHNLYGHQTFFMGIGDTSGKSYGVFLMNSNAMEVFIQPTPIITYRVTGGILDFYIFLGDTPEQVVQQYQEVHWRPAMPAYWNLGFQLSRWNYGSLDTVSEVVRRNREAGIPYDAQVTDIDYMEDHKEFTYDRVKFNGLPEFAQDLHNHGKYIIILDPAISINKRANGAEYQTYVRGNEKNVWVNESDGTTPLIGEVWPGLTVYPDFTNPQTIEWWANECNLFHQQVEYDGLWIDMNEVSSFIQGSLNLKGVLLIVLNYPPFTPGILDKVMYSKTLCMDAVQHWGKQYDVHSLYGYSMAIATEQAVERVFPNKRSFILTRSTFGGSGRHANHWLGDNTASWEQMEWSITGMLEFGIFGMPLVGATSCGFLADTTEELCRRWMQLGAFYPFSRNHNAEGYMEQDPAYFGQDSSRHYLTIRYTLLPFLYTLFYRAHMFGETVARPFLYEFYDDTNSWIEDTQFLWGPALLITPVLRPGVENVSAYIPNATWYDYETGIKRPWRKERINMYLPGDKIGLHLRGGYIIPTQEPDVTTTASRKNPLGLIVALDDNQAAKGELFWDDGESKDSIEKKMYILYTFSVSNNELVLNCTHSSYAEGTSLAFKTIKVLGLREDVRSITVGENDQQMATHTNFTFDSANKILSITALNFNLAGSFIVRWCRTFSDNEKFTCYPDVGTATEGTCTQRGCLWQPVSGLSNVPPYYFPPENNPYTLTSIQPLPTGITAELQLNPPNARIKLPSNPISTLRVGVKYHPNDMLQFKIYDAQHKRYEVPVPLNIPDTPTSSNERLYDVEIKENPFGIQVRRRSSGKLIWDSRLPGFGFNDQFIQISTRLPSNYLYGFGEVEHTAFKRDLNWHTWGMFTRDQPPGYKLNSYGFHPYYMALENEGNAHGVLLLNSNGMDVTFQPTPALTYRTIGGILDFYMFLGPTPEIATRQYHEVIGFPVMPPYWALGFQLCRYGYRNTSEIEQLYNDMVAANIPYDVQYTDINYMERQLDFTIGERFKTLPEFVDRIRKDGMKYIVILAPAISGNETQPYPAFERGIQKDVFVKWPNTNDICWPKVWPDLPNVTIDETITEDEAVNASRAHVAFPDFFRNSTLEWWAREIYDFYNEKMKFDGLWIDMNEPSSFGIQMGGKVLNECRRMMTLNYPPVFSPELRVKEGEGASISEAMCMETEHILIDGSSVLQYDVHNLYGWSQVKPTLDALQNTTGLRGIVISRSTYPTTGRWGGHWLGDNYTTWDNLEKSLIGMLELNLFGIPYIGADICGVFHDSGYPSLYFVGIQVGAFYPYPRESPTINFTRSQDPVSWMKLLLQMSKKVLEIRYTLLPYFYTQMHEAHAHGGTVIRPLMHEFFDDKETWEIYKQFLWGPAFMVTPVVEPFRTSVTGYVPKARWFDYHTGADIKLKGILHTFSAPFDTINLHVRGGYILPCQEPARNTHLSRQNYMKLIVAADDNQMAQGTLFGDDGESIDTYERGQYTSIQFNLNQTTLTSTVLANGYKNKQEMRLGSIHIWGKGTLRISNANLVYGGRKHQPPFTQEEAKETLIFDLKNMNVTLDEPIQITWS
Procedure: Twenty samples with the concentrations shown in Table 11, Samples A-1 through A-20, were dissolved in 0.1 M phosphate buffer (pH 6.8) to a final volume of 2.5 ml.
This was made in the same way as in the preparation of a small intestinal enzyme solution in Example 1.
(§1) Each 0.15 ml of a small intestinal enzyme solution was added to each 2.5 ml of the aforementioned 20 samples, each mixture, and placed in a water bath at 37° C. to allow reaction for 10 minutes while shaken at 60 strokes/min. At the end of the reaction, the mixture was heated in a boiling water bath for 3 min. for inactivation of the enzyme. As a blank, 0.15 ml of the intestinal enzyme solution was added to 0.1 M phosphate buffer (pH 6.8) and the enzyme was inactivated immediately.
(§2) After the reaction, the glucose concentration in each solution was measured using the F-kit Glucose (ex Roche) as in Example 1.
The procedures in Example 8 were repeated with the exception that twenty samples with the concentrations shown in Table 12, Samples B-1 through B-20, were dissolved in 0.1 M phosphate buffer (pH 6.8) to a final volume of 2.5 ml.

glucoamylase = assay: Ratio of inhibitor to the substrate dextrin (Examples 10, 11); assay type: biochemical, rat
Procedure: as §1, §2
The procedures in Example 8 were repeated with the exception that sixteen samples with the concentrations shown in Table 13, Samples C-1 through C-16, were dissolved in 0.1 M phosphate buffer (pH 6.8) to a final volume of 2.5 ml.
The procedures in Example 8 were repeated with the exception that sixteen samples with the concentrations shown in Table 14, Samples D-1 through D-16, were dissolved in 0.1 M phosphate buffer (pH 6.8) to a final volume of 2.5 ml.

In the case of `OC[C@H]1O[C@H](OC[C@H]2OC(O)(CO)[C@@H](O)[C@@H]2O)[C@H](O)[C@@H](O)[C@@H]1O` (stereo partly shown) [palatinose, isomaltulose], the “Inhibitory effect on the decomposition of sucrose (FIG. 5)” value (sucrase; sucrose concentration 0.5%, palatinose 5, 10, 50% relative to sucrose) is reported as “not clear”, the “Ratio of palatinose added relative to the weight of sucrose at which decomposition of sucrose was suppressed (FIG. 4)” value (sucrase; sucrose concentrations 3%, 5%, 10% and 15%) is reported as at least 10% and the “Ratio of inhibitor added relative to the weight of dextrin at which the inhibitory effect on decomposition of dextrin was seen at all dextrin concentrations” value (glucoamylase; dextrin 0.5%, 2%, 5%, 10%, FIG. 8 (palatinose), FIG. 9 (palatinit)) is reported as “above 10%”. The “Inhibitory effect on decomposition of dextrin (FIG. 8)” value (glucoamylase; palatinose 5% relative to the weight of dextrin, dextrin concentration 10%) was “no inhibitory effect on decomposition of dextrin was seen”.
